Experimental findings from patent EP3650046A1, “MESENCHYMAL STEM CELL BASED TARGETED ACTIVE INGREDIENT DELIVERY SYSTEM” (Cellis AG, priority 2018, dated 2020) are described below.

The test system of assay [1] is human cancer cell lines HeLa, SCOV3 or MDA-MB-231. The experiment in a line: Delivery of the complex from loaded MSCs to cancer cells in co-culture, flow cytometry. Format: cell-based. The following applies: loaded MSCs co-cultured for 24 hours with cancer cells in ratio 2:1, example of results. As for the experimental part:
Cancer cell lines HeLa, SKOV3 and MDA-MB-231 were cultures in RPMI, 10%FBS, 1:100 penicillin/streptomycin, 1:100 L-glutamine. Media was changed every 2 days.
For co-culture with MSCs, cancer cells were detached from culture dish using 0,25% Trypsin-EDTA and resuspended in full RPMI media. UC-MSC cells were prepared as described in Example 1 and then mixed 2:1 (200 000:100 000) with cancer cell line and plated on 24-well plate. Co-culture media was a mixture 1:1 of media for MSC and cancer cells.
The results were analysed by flow cytometry. Before setting up the co-culture in every experiment cancer cells were stained with Cell Trace Violet (Thermo Fisher Scientific) in the 1:100 dilution. In experiments with fluorescent cargo (haemoglon-Alexa488 and ferritin-A488) UC-MSC and cancer cells were differentiated by Cell Trace Violet signal. In experiments with ferritin-doxorubicin all cells in co-culture were additionally stained with Draq7 (BioLegend) in order to track viability. Cells were differentiated by Cell Trace Violet.

Assay [2] relates to Human umbilical Mesenchymal Stem Cells (MSC). In words: Loading of UC-MSC in suspension with fluorescently labelled iron-binding protein complexes, flow cytometry. The assay is classed as cell-based. The settings on record: MSC at passage five loaded with 0.6 mg/ml. As for the experimental part:
Umbilical Cord Mesenchymal Stem cells (UC-MSC) were cultured in DMEM 1000, 1:100 penicillin/streptomycin, 20% FBS, 8 ng/ml bFGF. Media was changed every 2 days. Experiments were carried out on UC-MSCs at passage 5.
Ferritin and haemoglobin complexes were produced as described in WO 2016/207257 (see in particular Examples 5 and 6).
Human UC-MSCs were loaded in suspension with fluorescently labelled haemoglobin-Alexa488, ferritn-Alexa488 or ferritin loaded with anticancer drug doxorubicin (ferritin-doxorubicin) as follows: UC-MSCs were detached from culture dish with 0,25% Trypsin-EDTA then cells were mixed with 0,6 mg/ml of haemoglobin-Alexa488, ferritn-Alexa488 and ferritn-doxorubicin in PBS to final cell density 10^6 per ml. Next cells were incubated for 1 hour at 37 °C, 5% CO2 and washed once in PBS afterwards. Cells were immediately used to set up co-culture with cancer cells.

Turning to “Haemoglobin-Alexa488: fluorescently labelled haemoglobin-Alexa488, produced as described in WO 2016/207257”, the results for the “cancer cells positive for Haemoglobin-Alexa488” value in assay [1] (Fig. 2C) and in assay [1] (Fig. 3C (Ft- / Ft+ panels)) were “Approximately 96%” and “Approximately 92%”, respectively. The “efficacy of loading of MSC” value in assay [2] is given as at least 97%. Besides, the “mean fluorescence intensity in loaded MSC cells versus control group” value in assay [2] (fold higher than control group) was 4 times.
